{
  "source": "BindingDB's records for doi:10.1007/s00044-007-9052-5",
  "about": "(Central Drug Research Institute, 2008)",
  "target": "DNA ligase A (Mycobacterium tuberculosis (strain ATCC 25618 / H37Rv), UniProt P9WNV1)",
  "experiment": "Enzyme Assay",
  "from_the_text": "All assays have been carried out using procedures previously described by our group (Srivastava et al., 2005a; 2005b; 2007)",
  "data": [
    {"smiles": "CC1(C)O[C@H]2OC(C(CCO)NCCCN[C@@H](CCO)C3O[C@@H]4OC(C)(C)O[C@@H]4[C@H]3OCc3ccccc3)[C@H](OCc3ccccc3)[C@H]2O1", "note": "(stereo partly specified) [Glycosylamine, 4]", "values": [
      {"measurement": "IC50", "value": 46.2, "unit": "µM"}
    ]}
  ]
}
